Data reported in patent US8399417B2, “Food” (Ajinomoto Co., Inc., priority 2007, dated 2013).
Starred links: 1 amine or outer side, 2 acyl side, 3 side chain; linkers in the order of their positions; H or OH if unused. Non-standard residues stand in square brackets, D forms with d. No end group written: not given here. γGlu = O=C(O)[C@H](CCC(=O)[*:2])N[*:1]

Assay: Fat-like richness and smoothness imparted to low-fat yogurt, quantitative sensory evaluation test
Format: in vivo, human
Settings: Table 10
Protocol: The quantitative sensory evaluation test was performed as follows. Each of γ-Glu-Val-Gly and cinacalcet was mixed with commercially-available low-fat yogurt (non-fat milk solids content: 10.0%, milk fat content: 1.0%) at a concentration of 0.00001 to 1 g/dl, and the intensity of imparting fat-like richness was measured.
It should be noted that after each sample was dissolved in low-fat yogurt, and a sample, the pH of which was lowered, was adjusted with NaOH so that the pH might be ±0.2 with respect to the pH of the […] free of a sample.
The sensory score for fat-like richness and smoothness was defined as follows: control (free of sample): 0 point; strong: 3 points; and very strong: 5 points. Then, the test was performed with n=12.

[γGlu]-Val-Gly
Fat-like richness (0.001 g/dl in low-fat yogurt (milk fat 1.0%), n=12, control 0, strong 3, very strong 5 points): 4.5 points | Taste profile (0.001 g/dl in low-fat yogurt): Taste is enhanced in middle | Smoothness (0.001 g/dl in low-fat yogurt, n=12, control 0, strong 3, very strong 5 points): 4.0 points
